By Ki is commonly meant the equilibrium dissociation constant of an inhibitor or competing ligand from its target. The low end stands for tighter binding, the high end for weaker binding.

Here are results for 15 compounds from patent US9296741B2, “Bromodomain inhibitors” (priority 2012, dated 2016).

Data set [1] concerns the target human BRD4 first bromodomain (BDI_K57-E168) (Homo sapiens (Human), UniProt O60885). Kind of data set: TR-FRET bromodomain binding assay, BRD4 first bromodomain. On the technique in general: TR-FRET usually uses a lanthanide donor and a delayed reading to cut background.
The nature of data set [2]: Mouse liver microsome stability assay. The following applies: microsomes, pH 7.4; for half-life at 0.5 μM: male, CD1, mouse. It is filed as in vitro ADME. For orientation: Liver microsomes are vesicles of endoplasmic reticulum, rich in cytochrome P450 enzymes.
Data set [3] can be described thus: Rat liver microsome stability assay. It is filed as in vitro ADME. To be noted: for half-life at 0.5 μM: rat liver microsomes (male Sprague-Dawley), 0.5 μM test compound, 0.25 mg/mL microsomal protein, pH 7.4, 37° C., read-out: Stability in rat liver microsomes (t1/2 in minutes).
Data set [4] is described as follows: Human liver microsome stability assay. Format: in vitro ADME. To be noted: human, microsomes, pH 7.4; for half-life at 0.5 μM: both sexes.
Data set [5] relates to LPS induced IL-6 production. Kind of data set: LPS (lipopolysaccharide) induced IL-6 production mouse assay. It is filed as in vivo. To be noted: 1 h before LPS, serum IL-6 2 h after LPS; for inhibition in vivo at 3 mg/kg: Mus musculus, read-out: Inhibition of LPS induced IL-6 production in Mice, % inhibition at 3 mg/kg.
Data set [6] deals with human BRD4 second bromodomain (BDII_E352-M457) (Homo sapiens (Human), UniProt O60885). Briefly: TR-FRET bromodomain binding assay, BRD4 second bromodomain.
Data set [7] has as its system breast cancer cell line MX-1. Briefly: MX-1 cell line proliferation assay. It is filed as cell-based, human. The following applies: MX-1 cells, 3-day proliferation, Cell Titer Glo, read-out: Cellular proliferation: EC50. Background: In ATP-based viability assays light output follows the ATP content of the culture.

Like-named read-outs stand apart in the source and are kept apart here. A value given as a limit tells only on which side of the number the result lay.

As for `CCS(=O)(=O)Nc1ccc(Oc2c(F)cc(F)cc2F)c(-c2cn(C)c(=O)c3[nH]ccc23)c1` [Example 62, N-[3-(6-methyl-7-oxo-6,7-dihydro-1H-pyrrolo[2,3-c]pyridin-4-yl)-4-(2,4,6-trifluorophenoxy)phenyl]ethanesulfonamide], the results for the Ki in data set [1] and in data set [6] were 3 nM and 1.9 nM, respectively. Also, the half-life at 0.5 μM in data set [2] was 25 min; in data set [3], 45 min; in data set [4], 64 min. Moreover, the inhibition in vivo at 3 mg/kg in data set [5] (3 mg/kg oral) amounted to 67%. Besides, in data set [7] (Homo sapiens, MX1, 72 h), the EC50 came out at 7.9 nM.

As for `Cn1cc(-c2cc(S(N)(=O)=O)ccc2NCC2CC2)c2cc[nH]c2c1=O` [Example 238, 4-[(cyclopropylmethyl)amino]-3-(6-methyl-7-oxo-6,7-dihydro-1H-pyrrolo[2,3-c]pyridin-4-yl)benzenesulfonamide], the Ki worked out at 1.1 nM in data set [1] and 0.78 nM in data set [6]. For the same compound, the half-life at 0.5 μM is 63 min in data set [2], greater than 120 min in data set [3] and 103 min in data set [4]. In addition, in data set [5] (3 mg/kg oral), the inhibition in vivo at 3 mg/kg worked out at 69%. The EC50 in data set [7] (Homo sapiens, MX1, 72 h) was determined as 3.3 nM.

For `Cn1cc(-c2cc(S(C)(=O)=O)ccc2NC2CCCCC2)c2cc[nH]c2c1=O` [Example 147, 4-[2-(cyclohexylamino)-5-(methylsulfonyl)phenyl]-6-methyl-1,6-dihydro-7H-pyrrolo[2,3-c]pyridin-7-one], the Ki in data set [1] worked out at 2.1 nM; in data set [6], 1.1 nM. The half-life at 0.5 μM was 32 min in data set [2], 8 min in data set [3] and 11 min in data set [4]. Also, in data set [5] (3 mg/kg oral), the inhibition in vivo at 3 mg/kg was determined as 61%. Also, the EC50 in data set [7] (Homo sapiens, MX1, 72 h) is 14.8 nM.

With `Cn1cc(-c2cc(S(=O)(=O)N3CC(F)(F)C3)ccc2OCC2CC2)c2cc[nH]c2c1=O` [Example 308, 4-{2-(cyclopropylmethoxy)-5-[(3,3-difluoroazetidin-1-yl)sulfonyl]phenyl}-6-methyl-1,6-dihydro-7H-pyrrolo[2,3-c]pyridin-7-one], the Ki in data set [1] worked out at 49.9 nM; in data set [6], 6.5 nM. In addition, the half-life at 0.5 μM in data set [2] worked out at 16 min; in data set [3] it was 10 min; in data set [4], 20 min. The inhibition in vivo at 3 mg/kg in data set [5] (3 mg/kg oral) was 48%. Besides, the EC50 in data set [7] (Homo sapiens, MX1, 72 h) was 29.3 nM.

Turning to `CCS(=O)(=O)Nc1ccc(OCC(C)(C)C)c(-c2cn(C)c(=O)c3[nH]ccc23)c1` [Example 144, N-[4-(2,2-dimethylpropoxy)-3-(6-methyl-7-oxo-6,7-dihydro-1H-pyrrolo[2,3-c]pyridin-4-yl)phenyl]ethanesulfonamide], the Ki in data set [1] came to 13.6 nM; in data set [6], 17.8 nM. Besides, the half-life at 0.5 μM in data set [2] is 17 min; in data set [3], 19 min; in data set [4], 18 min. For the same compound, in data set [5] (3 mg/kg oral), the inhibition in vivo at 3 mg/kg worked out at 48%. The EC50 in data set [7] (Homo sapiens, MX1, 72 h) worked out at 76.9 nM.

With `Cn1cc(-c2cc(S(C)(=O)=O)ccc2Oc2ccc3ncccc3c2)c2cc[nH]c2c1=O` [Example 162, 6-methyl-4-[5-(methylsulfonyl)-2-(quinolin-6-yloxy)phenyl]-1,6-dihydro-7H-pyrrolo[2,3-c]pyridin-7-one], the results for the Ki in data set [1] and in data set [6] were 11.1 nM and 4.6 nM, respectively. Moreover, the results for the half-life at 0.5 μM in data set [2], in data set [3] and in data set [4] were 11 min, 41 min and 96 min, respectively. Further, in data set [5] (3 mg/kg oral), the inhibition in vivo at 3 mg/kg amounted to 41%. Also, the EC50 in data set [7] (Homo sapiens, MX1, 72 h) came out at 127 nM.

With `Cn1cc(-c2cc(S(C)(=O)=O)ccc2Oc2ccc(F)cc2F)c2cc(CO)[nH]c2c1=O` [Example 276, 4-[2-(2,4-difluorophenoxy)-5-(methylsulfonyl)phenyl]-2-(hydroxymethyl)-6-methyl-1,6-dihydro-7H-pyrrolo[2,3-c]pyridin-7-one], the Ki in data set [1] was found to be 11.4 nM; in data set [6] it was 17.1 nM. Further, the values for the half-life at 0.5 μM in data set [2], in data set [3] and in data set [4] were 71 min, 82 min and greater than 120 min, respectively. In addition, the inhibition in vivo at 3 mg/kg in data set [5] (3 mg/kg oral) came to 25%. The EC50 in data set [7] (Homo sapiens, MX1, 72 h) came out at 149 nM.

With `Cn1cc(-c2cc(NS(=O)(=O)CC(F)(F)F)ccc2Oc2ccccc2)c2cc[nH]c2c1=O` [Example 5, 2,2,2-trifluoro-N-[3-(6-methyl-7-oxo-6,7-dihydro-1H-pyrrolo[2,3-c]pyridin-4-yl)-4-phenoxyphenyl]ethanesulfonamide], the values for the inhibitory constant (Ki) in data set [1] and in data set [6] were 15 nM and 6.4 nM, respectively. Moreover, the half-life at 0.5 μM in data set [2] came out at 24 min; in data set [3] it was 6 min; in data set [4] it was 100 min. The “Inhibition of LPS induced IL-6 production in Mice, % inhibition at 50 mg/kg” value in data set [5] (50 mg/kg oral) stood at 74% at 50 mg/kg. In addition, in data set [7] (Homo sapiens, MX1, 72 h), the EC50 was found to be 31 nM.

As to `CN(C)S(=O)(=O)c1cnc(NCC2CC2)c(-c2cn(C)c(=O)c3[nH]ccc23)c1` [Example 245, 6-[(cyclopropylmethyl)amino]-N,N-dimethyl-5-(6-methyl-7-oxo-6,7-dihydro-1H-pyrrolo[2,3-c]pyridin-4-yl)pyridine-3-sulfonamide], the Ki turned out to be 2.5 nM in data set [1] and 3.7 nM in data set [6]. Also, the half-life at 0.5 μM in data set [2] came out at 12 min; in data set [3] it was 24 min; in data set [4], 32 min. Besides, the inhibition in vivo at 3 mg/kg in data set [5] (3 mg/kg oral) was 71%. The EC50 in data set [7] (Homo sapiens, MX1, 72 h) was 26.9 nM.

Consider `Cn1cc(-c2cc(S(C)(=O)=O)ccc2Oc2ccc(F)cc2F)c2cc[nH]c2c1=O` [Example 138, 4-[2-(2,4-difluorophenoxy)-5-(methylsulfonyl)phenyl]-6-methyl-1,6-dihydro-7H-pyrrolo[2,3-c]pyridin-7-one], for which the Ki came to 16.7 nM in data set [1] and 9.5 nM in data set [6]. The half-life at 0.5 μM was determined as 45 min in data set [2], 51 min in data set [3] and 52 min in data set [4]. In addition, the inhibition in vivo at 3 mg/kg in data set [5] (3 mg/kg oral) was 72%. The EC50 in data set [7] (Homo sapiens, MX1, 72 h) is 85.1 nM.

As for `CCS(=O)(=O)c1ccc(OC2CCC(C)(O)CC2)c(-c2cn(C)c(=O)c3[nH]ccc23)c1` (stereo not drawn) [Example 212, 4-{5-(ethylsulfonyl)-2-[(trans-4-hydroxy-4-methylcyclohexyl)oxy]phenyl}-6-methyl-1,6-dihydro-7H-pyrrolo[2,3-c]pyridin-7-one], the inhibitory constant (Ki) worked out at 1.8 nM in data set [1] and 1.3 nM in data set [6]. In addition, in data set [2] (mouse), the “Stability in mouse liver microsomes (t1/2 in minutes)” value turned out to be 53 min. Also, the “Stability in rat liver microsomes (t1/2 in minutes)” value in data set [3] (rat, microsomes, pH 7.4) worked out at 67 min. The “Stability in human liver microsomes (t1/2 in minutes)” value in data set [4] turned out to be 69 min. Also, in data set [5] (3 mg/kg oral), the “Inhibition of LPS induced IL-6 production in Mice, % inhibition at 3 mg/kg” value came to 47%. For the same compound, the EC50 in data set [7] was found to be 7.3 nM.

In the case of `Cn1nc(-c2cc(NS(C)(=O)=O)ccc2Oc2ccc(F)cc2F)c2cc[nH]c2c1=O` [Example 159, N-[4-(2,4-difluorophenoxy)-3-(6-methyl-7-oxo-6,7-dihydro-1H-pyrrolo[2,3-d]pyridazin-4-yl)phenyl]methanesulfonamide], the figures for the Ki in data set [1] and in data set [6] were 37 nM and 20.7 nM, respectively. Moreover, the figures for the half-life at 0.5 μM in data set [2], in data set [3] and in data set [4] were 59 min, 107 min and 89 min, respectively. In addition, the inhibition in vivo at 3 mg/kg in data set [5] (3 mg/kg oral) was determined as 58%. In addition, in data set [7] (Homo sapiens, MX1, 72 h), the EC50 stood at 62.4 nM.

For the compound `Cn1cc(-c2cc(NS(C)(=O)=O)ccc2OC2CCC(F)(F)CC2)c2cc[nH]c2c1=O` [Example 59, N-{4-[(4,4-difluorocyclohexyl)oxy]-3-(6-methyl-7-oxo-6,7-dihydro-1H-pyrrolo[2,3-c]pyridin-4-yl)phenyl}methanesulfonamide], the figures for the Ki in data set [1] and in data set [6] were 0.84 nM and 1.6 nM, respectively. The half-life at 0.5 μM in data set [2] was 23 min; in data set [3] it was 40 min; in data set [4], greater than 120 min. Moreover, the inhibition in vivo at 3 mg/kg in data set [5] (3 mg/kg oral) stood at 54%. In addition, the EC50 in data set [7] (Homo sapiens, MX1, 72 h) was 18.7 nM.

As for `Cn1cc(-c2cc(S(C)(=O)=O)ccc2Oc2ccccc2)c2cc[nH]c2c1=O` [Example 85, 6-methyl-4-[5-(methylsulfonyl)-2-phenoxyphenyl]-1,6-dihydro-7H-pyrrolo[2,3-c]pyridin-7-one], the inhibition constant Ki in data set [1] turned out to be 6.4 nM; in data set [6] it was 1.7 nM. For the same compound, the half-life at 0.5 μM in data set [2] turned out to be 34 min; in data set [3] it was 6 min; in data set [4], 43 min. Moreover, the inhibition in vivo at 3 mg/kg in data set [5] (3 mg/kg oral) amounted to 80%. The EC50 in data set [7] (Homo sapiens, MX1, 72 h) was found to be 52 nM.

Regarding `CC(O)c1cc2c(-c3cc(S(C)(=O)=O)ccc3Oc3ccc(F)cc3F)cn(C)c(=O)c2[nH]1` (stereo not drawn) [Example 278, 4-[2-(2,4-difluorophenoxy)-5-(methylsulfonyl)phenyl]-2-(1-hydroxyethyl)-6-methyl-1,6-dihydro-7H-pyrrolo[2,3-c]pyridin-7-one], the values for the Ki in data set [1] and in data set [6] were 12.1 nM and 11.2 nM, respectively. In addition, the half-life at 0.5 μM in data set [2], in data set [3] and in data set [4] was greater than 120 min in each case. In addition, in data set [5] (3 mg/kg oral), the inhibition in vivo at 3 mg/kg is 51%. The EC50 in data set [7] (Homo sapiens, MX1, 72 h) worked out at 135 nM.
